Converted amounts (≈) assume the structure as drawn.
Experiments:
Streptococcus pyogenes [1] = assay: In vitro MIC, anaerobic agar dilution, Strep. pyogenes; format: cell-based; details: brain-heart infusion agar, 37°C.
Description: (§1) The in vitro activities are determined under anaerobic conditions in the following manner. Appropriate serial two-fold dilutions of the compounds are mixed with molten brain-heart infusion agar in sterile petri dishes and allowed to solidify. The bacterial cells (approximately 10^5 -10^6 cells) are placed on the top of the agar plate with a Steers replicating device. The plates are incubated at 37°C. in the anaerobic conditions achieved by a Gas Pak (BBL, Cockeysville, […].). The M.I.C. […] The in vitro and in vivo activities of compounds within this invention versus Streptococcus pyogenes and Escherichia coli are presented below: ##SPC4##

Escherichia coli [2] = assay: In vivo survivors (SC route), E. coli infection; details: SC route (subcutaneous); for responders at 100 mg/kg: 100 mg./kg. (footnote b)
Source text: (§2) The in vitro and in vivo activities of compounds within this invention versus Streptococcus pyogenes and Escherichia coli are presented below: ##SPC4##

Streptococcus pyogenes [3] = assay: In vivo survivors (SC route), Strep. pyogenes infection; details: SC route (subcutaneous); for responders at 100 mg/kg: 100 mg./kg. (footnote b)
Source text: as §2

Escherichia coli [4] = assay: In vitro MIC, anaerobic agar dilution, E. coli; format: cell-based; details: brain-heart infusion agar, 37°C.
Description: as §1

Structure (SMILES) | MIC (Streptococcus pyogenes [1]) [µg/mL] | MIC (Escherichia coli [4]) [µg/mL] | responders at 25 mg/kg (Escherichia coli [2]) [%] | responders at 50 mg/kg (Streptococcus pyogenes [3]) [%] | responders at 100 mg/kg (Escherichia coli [2]) [%] | responders at 100 mg/kg (Streptococcus pyogenes [3]) [%]
Cc1c(CS(C)(=O)=O)[n+]([O-])c2ccccc2[n+]1[O-] [CH3 SO2 --CH3] | 1.56 (≈ 5.82 µM) | 3.12 (≈ 11.6 µM) | 70 | 10 | – | –
Cc1c(C[S+](C)[O-])[n+]([O-])c2ccccc2[n+]1[O-] (centres unmarked) [CH3 SO--CH3, 2-methyl-3-methylsulfinylmethylquinoxaline 1,4-dioxide] | 25 (≈ 99.1 µM) | > 200 | 10 | 20 | – | –
C[S+]([O-])Cc1c[n+]([O-])c2ccccc2[n+]1[O-] (centres unmarked) [H SO--CH3, 2-Methylsulfinylmethylquinoxaline 1,4-Dioxide] | < 0.391 | < 0.391 | – | – | 100 | 30
CCC[S+]([O-])Cc1c[n+]([O-])c2ccccc2[n+]1[O-] (centres unmarked) [H SO--CH2 CH2 CH3, 2-n-propylsulfinylmethylquinoxaline 1,4-dioxide] | 1.56 (≈ 5.87 µM) | 6.25 (≈ 23.5 µM) | 50 | 60 | – | –
CC[S+]([O-])Cc1c[n+]([O-])c2ccccc2[n+]1[O-] (centres unmarked) [H SO--CH2 CH3, 2-Ethylsulfinylmethylquinoxaline 1,4-Dioxide] | 0.781 (≈ 3.1 µM) | 3.12 (≈ 12.4 µM) | 90 | 20 | – | –
CCCSCc1c[n+]([O-])c2ccccc2[n+]1[O-] [H S--CH2 CH2 CH3, 2-n-propylthiomethylquinoxaline 1,4-dioxide] | 50 (≈ 200 µM) | 50 (≈ 200 µM) | 60 | 0 | – | –
CSCc1c[n+]([O-])c2ccccc2[n+]1[O-] [H S--CH3, 2-methylthiomethylquinoxaline 1,4-dioxide] | 1.56 (≈ 7.03 µM) | 1.56 (≈ 7.03 µM) | – | – | 70 | 50

Further lines, with some results ahead:

MIC (Streptococcus pyogenes [1]) [µg/mL] | MIC (Escherichia coli [4]) [µg/mL] | Structure (SMILES) | responders at 25 mg/kg (Escherichia coli [2]) [%] | responders at 50 mg/kg (Streptococcus pyogenes [3]) [%] | responders at 100 mg/kg (Escherichia coli [2]) [%] | responders at 100 mg/kg (Streptococcus pyogenes [3]) [%]
< 0.391 | < 0.391 | CS(=O)(=O)Cc1c[n+]([O-])c2ccccc2[n+]1[O-] [H SO2 --CH3, 2-Methylsulfonylmethylquinoxaline 1,4-Dioxide] | 100 | 90 | – | –
< 0.391 | < 0.391 | CCS(=O)(=O)Cc1c[n+]([O-])c2ccccc2[n+]1[O-] [H SO2 --CH2 CH3, 2-Ethylsulfonylmethylquinoxaline-1,4-Dioxide] | 100 | 100 | – | –
1.56 (≈ 5.53 µM) | 0.781 (≈ 2.77 µM) | CC(C)S(=O)(=O)Cc1c[n+]([O-])c2ccccc2[n+]1[O-] [H SO2 --CH(CH3)2] | 90 | 100 | – | –
3.12 (≈ 11.1 µM) | 25 (≈ 88.6 µM) | CCCS(=O)(=O)Cc1c[n+]([O-])c2ccccc2[n+]1[O-] [H SO2 --CH2 CH2 CH3] | 90 | 90 | – | –

From US3931174A, “Alkylmercaptomethylquinoxaline-1,4-dioxides and oxidized derivatives thereof” (Pfizer Inc., priority 1974, dated 1976)
